From paper PMC11790914, “Chemogenomics for steroid hormone receptors (NR3)” (Communications Chemistry, 2025)
Where “and” joins values, the source holds several entries; their conditions need not be identical. Equal values may be shown once.

Assays:
HEK293T cells [1] = test: Cytotoxicity: necrosis induction (red fluorescent dye for permeable plasma membranes); format: cell-based; settings: 1 µM, 24 h, necrotic cell count normalized to 0.1% DMSO, single replicates;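 further: compounds applied in DMEM high glucose with 0.1% FCS and 0.1% DMSO, necrotic HEK293T cells counted by red staining of cells whose plasma membranes had become permeable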
HEK293T cells [2] = test: Cytotoxicity: apoptosis induction (caspase-3/7 DEVD fluorogenic DNA dye); settings: 1 µM; HEK293T, 24 h; apoptotic cell count normalized to 0.1% DMSO; single replicates
MAPK1 = target: T1, MAPK1 (Homo sapiens, UniProt P28482); test: Liability panel screening by DSF: MAPK1; format: binding; settings: DSF, 20 µM, n=2; read-out: Mean ΔTM MAPK1
T1 construct: made in house
T1 sequence (P28482 whole entry, species assumed): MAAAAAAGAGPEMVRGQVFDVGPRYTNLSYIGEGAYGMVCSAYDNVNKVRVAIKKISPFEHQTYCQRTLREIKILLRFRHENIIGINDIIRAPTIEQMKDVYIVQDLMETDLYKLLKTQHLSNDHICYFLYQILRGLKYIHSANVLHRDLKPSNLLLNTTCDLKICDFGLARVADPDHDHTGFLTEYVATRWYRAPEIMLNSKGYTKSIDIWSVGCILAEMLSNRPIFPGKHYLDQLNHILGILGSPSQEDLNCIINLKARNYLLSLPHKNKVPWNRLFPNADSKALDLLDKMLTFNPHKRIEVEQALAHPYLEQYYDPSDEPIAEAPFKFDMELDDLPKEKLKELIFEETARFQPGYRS
In short: (§1)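 ∆Tm in K was taken from Boltzmann-fitted unfolding inflection points, run in duplicate with a temperature ramp of 3 °C per minute up to 85 °C. Each recombinant protein (2 µM) was in HEPES 10 mM pH 7.5 and NaCl 500 mM, with SYPRO Orange dye at 1:1000.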

[3] = tested on: NF-κB activity in HEK293 NF-κB reporter cells; test: NF-kB activity assay (GFP reporter, ionomycin/PMA); format: cell-based; settings: n=3
In short: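 Reporter readout: GFP-expressing cells normalized to confluence, imaged every 90 min across 24 h after ionomycin (100 ng/mL)/PMA (10 ng/mL) stimulation of HEK293 cells pre-treated 4 h with compound (0.1% DMSO); triplicate independent experiments.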

[4] = tested on: ATF6 activity in Hela ATF6 reporter cells; test: Endoplasmic reticulum stress assay (ATF6 Renilla luciferase reporter, tunicamycin); format: cell-based; settings: for activity at 1 µM: Homo sapiens, HeLa, single replicates n=1 to n=5, read-out: ER stress [rel. ATF6 activity]
In short: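 ER stress was induced by 100 ng/mL tunicamycin added 4 h after compound (0.1% DMSO) to HeLa ATF6 reporter cells. After 18 h more, Renilla luciferase signal was read and expressed relative to DMSO control, n=5 biological replicates.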

AURKA = target: T2, AURKA (Homo sapiens, UniProt O14965); test: Liability panel screening by DSF: AURKA; format: binding; settings: DSF, 20 µM, n=2; read-out: Mean ΔTM AURKA
T2 construct: made in house
T2 sequence (O14965 1-403): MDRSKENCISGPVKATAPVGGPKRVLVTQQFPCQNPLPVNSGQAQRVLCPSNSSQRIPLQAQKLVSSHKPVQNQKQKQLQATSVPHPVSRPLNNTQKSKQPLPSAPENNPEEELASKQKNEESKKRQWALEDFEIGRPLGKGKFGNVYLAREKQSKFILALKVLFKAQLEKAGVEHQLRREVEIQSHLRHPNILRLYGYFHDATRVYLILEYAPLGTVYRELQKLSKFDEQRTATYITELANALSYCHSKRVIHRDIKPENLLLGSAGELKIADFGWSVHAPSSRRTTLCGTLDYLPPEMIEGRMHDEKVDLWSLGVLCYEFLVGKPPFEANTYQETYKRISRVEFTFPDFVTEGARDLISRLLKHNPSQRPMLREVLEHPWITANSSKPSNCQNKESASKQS
In short: as §1

ABL1 = target: T3, ABL1 (Homo sapiens, UniProt P00519); test: Liability panel screening by DSF: ABL1; format: binding; settings: DSF, 20 µM, n=2; read-out: Mean ΔTM ABL1
T3 construct: made in house
T3 sequence (P00519 whole entry, species assumed): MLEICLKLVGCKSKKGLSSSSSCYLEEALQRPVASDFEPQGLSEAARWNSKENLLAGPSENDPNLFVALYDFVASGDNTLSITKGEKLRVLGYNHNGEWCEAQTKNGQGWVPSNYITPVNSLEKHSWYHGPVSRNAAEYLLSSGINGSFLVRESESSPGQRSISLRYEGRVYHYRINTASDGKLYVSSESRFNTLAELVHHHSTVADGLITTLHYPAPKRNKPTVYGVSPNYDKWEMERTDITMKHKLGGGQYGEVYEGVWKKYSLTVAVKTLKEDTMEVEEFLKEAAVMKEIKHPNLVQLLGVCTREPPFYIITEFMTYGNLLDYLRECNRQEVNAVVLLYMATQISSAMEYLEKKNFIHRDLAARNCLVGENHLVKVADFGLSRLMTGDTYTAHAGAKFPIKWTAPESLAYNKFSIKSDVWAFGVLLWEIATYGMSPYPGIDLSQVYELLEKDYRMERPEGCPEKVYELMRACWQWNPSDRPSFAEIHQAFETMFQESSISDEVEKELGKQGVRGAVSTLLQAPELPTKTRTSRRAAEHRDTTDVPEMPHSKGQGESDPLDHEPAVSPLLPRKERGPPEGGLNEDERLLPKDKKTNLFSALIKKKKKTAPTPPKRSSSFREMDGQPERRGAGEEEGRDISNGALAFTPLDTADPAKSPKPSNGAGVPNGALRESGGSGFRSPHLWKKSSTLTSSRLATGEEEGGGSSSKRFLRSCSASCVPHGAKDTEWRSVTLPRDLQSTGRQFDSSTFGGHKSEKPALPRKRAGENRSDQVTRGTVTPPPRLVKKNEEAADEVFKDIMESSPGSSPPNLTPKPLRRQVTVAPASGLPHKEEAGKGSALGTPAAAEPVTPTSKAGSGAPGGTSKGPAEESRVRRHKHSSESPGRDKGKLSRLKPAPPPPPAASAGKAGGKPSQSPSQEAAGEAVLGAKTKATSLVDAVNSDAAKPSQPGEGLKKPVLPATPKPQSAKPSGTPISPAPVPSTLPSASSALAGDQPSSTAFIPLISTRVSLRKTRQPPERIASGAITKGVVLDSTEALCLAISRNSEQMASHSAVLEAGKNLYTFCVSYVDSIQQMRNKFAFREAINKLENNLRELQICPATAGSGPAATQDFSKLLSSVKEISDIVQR
In short: as §1

CDK2 = target: T4, CDK2 (Homo sapiens, UniProt P24941); test: Liability panel screening by DSF: CDK2; format: binding; settings: DSF, 20 µM, n=2; read-out: Mean ΔTM CDK2
T4 construct: made in house
In short: as §1

BRD4 = target: T5, BRD4 (Homo sapiens, UniProt O60885); test: Liability panel screening by DSF: BRD4; format: binding; settings: DSF, 20 µM, n=2; read-out: Mean ΔTM BRD4
T5 construct: This panel comprised ten highly ligandable kinases and bromodomains; made in house
In short: as §1

HEK293T cells [5] = test: Cytotoxicity: growth-rate (change in confluence over 24 h); settings: 1 µM, normalized to 0.1% DMSO control, single replicates (n=1...)
HEK293T cells [6] = test: Cytotoxicity: metabolic activity (WST-8 / CCK-8 assay); settings: 1 µM; HEK293T, 24 h; WST-8; normalized to 0.1% DMSO; single replicates
CSNK1D = target: T6, CSNK1D (Homo sapiens, UniProt P48730); test: Liability panel screening by DSF: CSNK1D; format: binding; settings: DSF, 20 µM, n=2; read-out: Mean ΔTM CSNK1D
T6 construct: made in house
T6 sequence (P48730 whole entry, species assumed): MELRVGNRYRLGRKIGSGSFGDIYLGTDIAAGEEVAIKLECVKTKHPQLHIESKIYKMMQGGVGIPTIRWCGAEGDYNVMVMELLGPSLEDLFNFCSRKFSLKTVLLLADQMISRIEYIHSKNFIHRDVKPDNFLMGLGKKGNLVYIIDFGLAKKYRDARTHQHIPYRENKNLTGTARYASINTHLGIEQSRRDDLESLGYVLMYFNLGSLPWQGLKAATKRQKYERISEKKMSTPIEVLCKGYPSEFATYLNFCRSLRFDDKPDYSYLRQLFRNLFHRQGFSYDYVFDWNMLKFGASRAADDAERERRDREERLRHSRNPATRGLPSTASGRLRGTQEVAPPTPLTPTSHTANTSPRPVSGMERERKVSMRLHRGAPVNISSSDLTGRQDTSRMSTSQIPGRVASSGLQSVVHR
In short: as §1

FGFR3 = target: T7, FGFR3 (Homo sapiens, UniProt P22607); test: Liability panel screening by DSF: FGFR3; format: binding; settings: DSF, 20 µM, n=2; read-out: Mean ΔTM FGFR3
T7 construct: made in house
T7 sequence (P22607 23-806, species assumed): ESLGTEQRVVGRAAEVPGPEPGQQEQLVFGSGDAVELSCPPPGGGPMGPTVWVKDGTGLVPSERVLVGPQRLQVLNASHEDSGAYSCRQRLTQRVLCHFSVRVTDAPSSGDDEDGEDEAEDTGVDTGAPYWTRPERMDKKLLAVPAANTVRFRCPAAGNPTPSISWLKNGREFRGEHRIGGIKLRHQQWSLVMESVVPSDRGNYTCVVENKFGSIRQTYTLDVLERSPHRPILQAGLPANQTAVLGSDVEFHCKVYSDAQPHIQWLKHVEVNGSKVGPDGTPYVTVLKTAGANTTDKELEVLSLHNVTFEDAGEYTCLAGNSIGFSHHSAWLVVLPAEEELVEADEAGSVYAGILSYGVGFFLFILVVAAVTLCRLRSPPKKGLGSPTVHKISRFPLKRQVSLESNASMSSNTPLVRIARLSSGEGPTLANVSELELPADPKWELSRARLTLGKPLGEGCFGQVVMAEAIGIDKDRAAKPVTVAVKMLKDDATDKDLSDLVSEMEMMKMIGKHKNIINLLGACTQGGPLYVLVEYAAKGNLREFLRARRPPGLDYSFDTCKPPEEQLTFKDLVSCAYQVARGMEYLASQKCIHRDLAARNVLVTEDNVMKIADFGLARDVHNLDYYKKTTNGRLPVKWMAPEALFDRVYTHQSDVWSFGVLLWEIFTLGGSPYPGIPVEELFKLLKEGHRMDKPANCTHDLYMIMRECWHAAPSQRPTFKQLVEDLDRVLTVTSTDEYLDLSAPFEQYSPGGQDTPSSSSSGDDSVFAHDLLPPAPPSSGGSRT
In short: as §1

TRIM24 = target: T8, TRIM24 (Homo sapiens, UniProt O15164); test: Liability panel screening by DSF: TRIM24; format: binding; settings: DSF, 20 µM, n=2; read-out: Mean ΔTM TRIM24
T8 construct: This panel comprised ten highly ligandable kinases and bromodomains; made in house
T8 sequence (O15164 899-1004 limits assumed): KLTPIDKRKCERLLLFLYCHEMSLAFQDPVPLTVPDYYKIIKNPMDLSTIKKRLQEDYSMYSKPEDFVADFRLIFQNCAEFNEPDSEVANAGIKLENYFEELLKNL
In short: as §1

BRPF1 = target: T9, BRPF1 (Homo sapiens, UniProt P55201); test: Liability panel screening by DSF: BRPF1; format: binding; settings: DSF, 20 µM, n=2; read-out: Mean ΔTM BRPF1
T9 construct: This panel comprised ten highly ligandable kinases and bromodomains; made in house
T9 sequence (P55201 628-732 limits assumed): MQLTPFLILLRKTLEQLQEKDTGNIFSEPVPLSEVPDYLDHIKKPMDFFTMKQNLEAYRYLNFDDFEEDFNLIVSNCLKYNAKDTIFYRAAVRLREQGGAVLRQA
In short: as §1

Gal4-VP16 = format: cell-based; settings: 1 µM; vs. DMSO ctrl; single replicates n=1-3
GSK3B = target: T10, GSK3B (Homo sapiens, UniProt P49841); test: Liability panel screening by DSF: GSK3B; format: binding; settings: DSF, 20 µM, n=2; read-out: Mean ΔTM GSK3B
T10 construct: made in house
T10 sequence (P49841 whole entry, species assumed): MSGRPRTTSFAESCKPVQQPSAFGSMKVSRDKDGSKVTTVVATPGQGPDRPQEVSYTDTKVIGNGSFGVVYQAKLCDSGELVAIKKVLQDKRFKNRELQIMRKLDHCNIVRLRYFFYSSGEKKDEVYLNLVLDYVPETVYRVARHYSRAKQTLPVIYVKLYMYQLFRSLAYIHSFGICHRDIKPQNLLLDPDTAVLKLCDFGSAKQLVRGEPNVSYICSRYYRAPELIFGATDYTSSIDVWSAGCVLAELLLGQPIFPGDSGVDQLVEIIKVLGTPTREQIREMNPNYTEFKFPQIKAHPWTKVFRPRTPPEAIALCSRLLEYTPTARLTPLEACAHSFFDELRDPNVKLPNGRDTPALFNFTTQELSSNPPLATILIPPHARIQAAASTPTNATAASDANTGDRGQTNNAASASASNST

| Structure (SMILES) | Necrosis induction [NI] (HEK293T cells [1]) | Apoptosis induction [AI] (HEK293T cells [2]) | ΔTm at 20 µM (MAPK1) [°C] | Mean NFκB response ([3]; 1 µM, 1,5 h) | Mean NFκB response ([3]; 1 µM, 4,5 h) | Mean NFκB response ([3]; 1 µM, 7,5 h) | Mean NFκB response ([3]; 1 µM, 10,5 h) | Mean NFκB response ([3]; 1 µM, 13,5 h) | Mean NFκB response ([3]; 1 µM, 16,6 h) | Mean NFκB response ([3]; 1 µM, 19,5 h) | Mean NFκB response ([3]; 1 µM, 22,5 h) | Mean NFκB response ([3]; 1 µM, 3 h) | Mean NFκB response ([3]; 1 µM, 6 h) | Mean NFκB response ([3]; 1 µM, 9 h) | Mean NFκB response ([3]; 1 µM, 12 h) | Mean NFκB response ([3]; 1 µM, 15 h) | Mean NFκB response ([3]; 1 µM, 18 h) | Mean NFκB response ([3]; 1 µM, 21 h) | Mean NFκB response ([3]; 1 µM, 24 h) | activity at 1 µM [4] [%] | other results |
| --- | --- | --- | --- | --- | --- | --- | --- | --- | --- | --- | --- | --- | --- | --- | --- | --- | --- | --- | --- | --- | --- |
| COC(=O)[C@@H]1CC2=CC(=O)CC[C@]2(C)[C@@]23O[C@@H]2C[C@@]2(C)[C@@H](CC[C@@]24CCC(=O)O4)[C@H]13 [Eplerenone] | 1.05 and 1.24 and 1.00 and 0.99 | 0.96 and 0.85 and 1.29 and 1.36 and 1.16 and 1.24 | 0.21 | 2599.33 GFP+-cells/confluence ∙ 1000 | 2970.00 GFP+-cells/confluence ∙ 1000 | 5786.00 GFP+-cells/confluence ∙ 1000 | 15820.00 GFP+-cells/confluence ∙ 1000 | 23870.00 GFP+-cells/confluence ∙ 1000 | 30236.67 GFP+-cells/confluence ∙ 1000 | 34356.67 GFP+-cells/confluence ∙ 1000 | 38213.33 GFP+-cells/confluence ∙ 1000 | 2606.00 GFP+-cells/confluence ∙ 1000 | 3625.00 GFP+-cells/confluence ∙ 1000 | 10753.00 GFP+-cells/confluence ∙ 1000 | 20210.00 GFP+-cells/confluence ∙ 1000 | 27316.67 GFP+-cells/confluence ∙ 1000 | 32426.67 GFP+-cells/confluence ∙ 1000 | 36556.67 GFP+-cells/confluence ∙ 1000 | 39176.67 GFP+-cells/confluence ∙ 1000 | 96 | ΔTm at 20 µM (AURKA): -0.81 °C; ΔTm at 20 µM (ABL1): 0.55 °C; ΔTm at 20 µM (CDK2): -0.21 °C; ΔTm at 20 µM (BRD4): -1.74 °C; Growth rate [GR] (HEK293T cells [5]): 0.85 and 4.28 and 0.92 and 1.11 and 0.73 and 0.84 and 0.96 and 4.53 and 0.57 and 31.96; Metabolic activity [MA] (HEK293T cells [6]): 1.06 and 1.03 and 0.91 and 0.99 (3×) and 0.98 and 1.09; ΔTm at 20 µM (CSNK1D): 0.47 °C; ΔTm at 20 µM (FGFR3): 1.06 °C; ΔTm at 20 µM (TRIM24): -0.62 °C; ΔTm at 20 µM (BRPF1): -1.07 °C; VP16 control [fold reporter gene activity] (Gal4-VP16): 1.24 fold reporter gene activity and 0.82 fold reporter gene activity and 1.00 fold reporter gene activity; ΔTm at 20 µM (GSK3B): -0.8 °C |
| Oc1ccc(-c2nc3cc(O)cc(Br)c3o2)cc1 [WAY200070] | 0.70 and 0.57 and 0.78 and 0.74 | 0.59 and 0.50 and 0.47 and 0.71 and 1.22 and 1.35 | -0.9 | 2392.96 GFP+-cells/confluence ∙ 1000 | 3166.63 GFP+-cells/confluence ∙ 1000 | 7710.70 GFP+-cells/confluence ∙ 1000 | 19182.75 GFP+-cells/confluence ∙ 1000 | 27828.42 GFP+-cells/confluence ∙ 1000 | 34347.41 GFP+-cells/confluence ∙ 1000 | 38770.94 GFP+-cells/confluence ∙ 1000 | 41785.25 GFP+-cells/confluence ∙ 1000 | 2570.72 GFP+-cells/confluence ∙ 1000 | 4284.26 GFP+-cells/confluence ∙ 1000 | 13724.58 GFP+-cells/confluence ∙ 1000 | 23519.76 GFP+-cells/confluence ∙ 1000 | 31227.07 GFP+-cells/confluence ∙ 1000 | 36753.27 GFP+-cells/confluence ∙ 1000 | 40136.06 GFP+-cells/confluence ∙ 1000 | 43256.26 GFP+-cells/confluence ∙ 1000 | 92 | ATF6 activity (tunicamycin-induced endoplasmic reticulum stress) ([4]; Hela ATF6 reporter cells, tunicamycin 100 ng/mL, 18 h, compounds at recommended concentrations, n = 5): failed to reduce ATF6 activity; ΔTm at 20 µM (AURKA): 0.19 °C; ΔTm at 20 µM (ABL1): 2.05 °C; ΔTm at 20 µM (CDK2): 1.93 °C; ΔTm at 20 µM (BRD4): 0.55 °C; Growth rate [GR] (HEK293T cells [5]): 0.70 and -0.18 and 0.97 and 1.02 and 1.09 and 1.00 and 1.07 and 0.46 and 0.96 and -0.95; Metabolic activity [MA] (HEK293T cells [6]): 1.01 (2×) and 0.90 and 0.92 and 0.96 and 0.97 and 1.05 and 1.00; ΔTm at 20 µM (CSNK1D): 2.57 °C; ΔTm at 20 µM (FGFR3): 1.16 °C; ΔTm at 20 µM (TRIM24): 0.24 °C; ΔTm at 20 µM (BRPF1): 2.12 °C; ΔTm at 20 µM (GSK3B): 3.58 °C |
